Experimental data: publication PMC12517324, “Hyperagonism of a Vitamin D Receptor Agonist/Histone Deacetylase Inhibitor Hybrid Molecule” (Journal of Medicinal Chemistry, 2025)

Key:
HDAC6 = molecular target: T1, HDAC6 (Homo sapiens, UniProt Q9UBN7); experiment: Inhibition of purified HDAC6, Boc-Lys(Ac)-AMC substrate; assay type: biochemical; parameters: purchased Cayman Chemical; settings: 1 h 37 °C
T1 sequence (Q9UBN7 1-1215): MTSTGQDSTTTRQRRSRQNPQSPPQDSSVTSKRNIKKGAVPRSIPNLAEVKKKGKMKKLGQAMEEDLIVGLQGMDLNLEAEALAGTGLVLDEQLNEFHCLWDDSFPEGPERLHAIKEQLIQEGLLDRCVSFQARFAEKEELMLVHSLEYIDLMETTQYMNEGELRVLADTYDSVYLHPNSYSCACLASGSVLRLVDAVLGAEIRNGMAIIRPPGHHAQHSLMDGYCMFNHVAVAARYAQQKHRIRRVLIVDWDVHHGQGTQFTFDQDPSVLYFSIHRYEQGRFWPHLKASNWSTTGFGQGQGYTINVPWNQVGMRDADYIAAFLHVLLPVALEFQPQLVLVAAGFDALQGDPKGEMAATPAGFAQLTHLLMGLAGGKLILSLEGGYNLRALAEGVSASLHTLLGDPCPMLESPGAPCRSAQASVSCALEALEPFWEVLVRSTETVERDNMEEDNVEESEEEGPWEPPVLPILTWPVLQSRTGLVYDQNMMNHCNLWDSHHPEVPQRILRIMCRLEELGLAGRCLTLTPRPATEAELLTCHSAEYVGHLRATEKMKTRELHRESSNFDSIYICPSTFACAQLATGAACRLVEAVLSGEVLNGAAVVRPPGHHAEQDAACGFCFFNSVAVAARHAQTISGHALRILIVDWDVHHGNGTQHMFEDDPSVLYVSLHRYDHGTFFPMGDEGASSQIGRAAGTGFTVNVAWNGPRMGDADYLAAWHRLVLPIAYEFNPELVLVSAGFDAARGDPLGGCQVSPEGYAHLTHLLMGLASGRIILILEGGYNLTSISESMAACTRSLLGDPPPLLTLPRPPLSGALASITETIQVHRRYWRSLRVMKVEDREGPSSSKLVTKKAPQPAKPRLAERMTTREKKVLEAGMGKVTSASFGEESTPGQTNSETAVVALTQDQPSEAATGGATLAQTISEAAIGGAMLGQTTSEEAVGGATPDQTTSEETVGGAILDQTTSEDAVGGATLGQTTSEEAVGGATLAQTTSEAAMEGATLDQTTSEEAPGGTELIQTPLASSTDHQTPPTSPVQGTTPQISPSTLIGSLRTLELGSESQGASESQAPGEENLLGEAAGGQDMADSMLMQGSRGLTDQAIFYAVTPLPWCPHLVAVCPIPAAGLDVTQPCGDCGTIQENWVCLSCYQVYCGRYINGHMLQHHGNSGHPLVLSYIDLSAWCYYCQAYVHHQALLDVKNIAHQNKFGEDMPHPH

HDAC2 = HDAC2 (Homo sapiens, UniProt Q92769); experiment: Inhibition of purified HDAC2, Boc-Lys(Ac)-AMC substrate; assay type: biochemical; parameters: purchased Cayman Chemical; settings: 1 h 37 °C
Sequence of HDAC2 (Q92769 whole entry): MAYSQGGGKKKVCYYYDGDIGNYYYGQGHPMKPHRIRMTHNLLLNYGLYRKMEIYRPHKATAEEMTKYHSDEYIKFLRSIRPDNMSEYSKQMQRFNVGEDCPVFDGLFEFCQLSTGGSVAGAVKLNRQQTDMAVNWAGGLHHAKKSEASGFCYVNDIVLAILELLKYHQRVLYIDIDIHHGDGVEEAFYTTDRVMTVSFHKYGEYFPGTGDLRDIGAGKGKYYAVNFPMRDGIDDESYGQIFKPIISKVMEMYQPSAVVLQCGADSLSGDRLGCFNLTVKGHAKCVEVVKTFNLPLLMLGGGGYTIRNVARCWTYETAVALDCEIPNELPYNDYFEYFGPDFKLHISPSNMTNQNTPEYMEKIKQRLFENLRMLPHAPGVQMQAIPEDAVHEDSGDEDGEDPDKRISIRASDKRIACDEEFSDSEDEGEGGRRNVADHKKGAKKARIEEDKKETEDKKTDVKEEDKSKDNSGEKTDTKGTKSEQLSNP

`CCC(CC)(c1ccc(OCCCCCC(=O)NO)cc1)c1ccc(OCC(O)C(C)(C)C)c(C)n1` (centres unmarked) [AM-193] showed an IC50 (HDAC6) of 3.09 µM and an IC50 (HDAC2) of 4.18 µM.
